≈ marks a conversion by molar mass, not a printed value. Where two headings read alike, the source gives them in different places. Starred links: 1 amine or outer side, 2 acyl side, 3 side chain; linkers in the order of their positions; H or OH if unused. Positions of bridges follow the written chain, without caps; N, C: chain ends. Non-standard residues stand in square brackets, D forms with d. Residues, ends and D or L forms follow the SMILES beside them. *: point of attachment. Decanoyl(3R-OH) = CCCCCCC[C@@H](O)CC(=O)*; dPhe(3-Cl) = N[C@H](Cc1cccc(Cl)c1)C(=O)O; hPhe = N[C@@H](CCc1ccccc1)C(=O)O; azaDab = NCCN(N[*:1])C(=O)[*:2]; dDab = NCC[C@@H](N)C(=O)O; dDap = NC[C@@H](N)C(=O)O; Dab = NCC[C@H](N)C(=O)O
What was measured:
[1] = in vitro; conditions: human
Outline: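 Cells were seeded at 4000 per well and allowed to attach for 24 h at 37 °C, 5% CO2, then exposed to compounds for 24 h. Resazurin (5 μM) was added for 2 h at 37 °C and fluorescence read at 560/590 nm. CC50 was derived by curve fitting of dose-dependent growth inhibition.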

[2] = in vitro; conditions: human; remark: listed apart in the source
Method: Cytotoxicity of the synthesised peptides was evaluated by comparison with commercially available colistin (polymyxin E), polymyxin B (Sigma chemical Co., St. Louis, Mo., U.S.A.) and synthetic octapeptin C4 by conducting lactate dehydrogenase (LDH) assay. CC50 values calculated based on curve fitting of dose dependent inhibition of cell growth represented the cytotoxicity of the peptide. Human kidney 2 (HK2) cells were seeded as 2000 cells per well in a 384 well cell culture plate in a final volume of 20 μL in DMEM/F12 medium (Invitrogen #11330057), in which 10% of FBS was added. Cells were incubated for 24 hours at 37° C., 5% CO2 to allow cells to attach to the plates. Similar conditions were employed for HEK293 and HepG2 cytotoxicity assays.
Cytotoxicity to HEK293 and HepG2 cells was determined using the resazurin assay (McMillian, M. K.; Li, L.; Parker, J. B.; Patel, L.; Zhong, Z.; Gunnett, J. W.; Powers, W. J.; Johnson, M. D. An improved resazurin-based cytotoxicity assay for hepatic cells; Cell Biol. Toxicol. 2002, 18, 157-173; O'Brien, J.; Wilson, I.; Orton, T.; Pognan, F. Investigation of the Alamar Blue (resazurin) fluorescent dye for the assessment of mammalian cell cytotoxicity. Eur. J. Biochem. 2000, 267, 5421-5426). In brief, HEK293 and HepG2 cells were seeded at 4000 cells/well in black-wall, clear-bottom 384-well plates (Corning, Australia) and incubated for 24 h at 37° C., 5% CO2. Compounds were then added into each well. After 24 h incubation, 5 μM resazurin was added per well and incubated at 37° C. for 2 h. Fluorescence intensity was then read using a Polarstar Omega with excitation/emission 560/590. The data was then analyzed using GraphPad Prism 6 software. CC50 values were determined using GraphPad Prism 6 software (Inc. La Jolla, Calif.).

[3] = tested on: E. coli ATCC 25922; conditions: ATCC 25922
Outline: (§1)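 Mid-log cultures grown in Mueller Hinton broth at 37° C were tested by 2-fold broth microdilution at 5×10^5 CFU/mL final. Compounds were dissolved in water and tested over a final range of 32 to 0.015 μg/mL.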

[4] = tested on: K. pneumoniae GN_102 PmxR; conditions: GN 102 PmxR
Outline: as §1

[5] = tested on: A. baumannii ATCC 19606; conditions: ATCC 19606
Outline: as §1

[6] = tested on: K. pneumoniae ATCC BAA-2146, NDM-1 pos; conditions: ATCC BAA-2146
Outline: as §1

[7] = tested on: P. aeruginosa ATCC 27853; conditions: ATCC 27853
Outline: as §1

[8] = tested on: S. aureus ATCC 25923, MSSA; conditions: ATCC 25923
Outline: as §1

[9] = tested on: K. pneumoniae ATCC 13883; conditions: ATCC 13883
Outline: as §1

[10] = tested on: K. pneumoniae ATCC 700603, MDR; conditions: ATCC 700603
Outline: as §1

[11] = tested on: K. pneumoniae GN_106, PmxR; conditions: GN 106, PmxR
Outline: as §1

[12] = tested on: P. aeruginosa GN_043, PmxR
Outline: as §1

[13] = tested on: P. aeruginosa GN_105, PmxR; conditions: GN 105, PmxR
Outline: as §1

[14] = tested on: A. baumannii GN_093 PmxR; conditions: GN 093 PmxR
Outline: as §1

[15] = tested on: Neisseria gonorrhoeae; assay: MIC determination, Neisseria gonorrhoeae; type: cell-based; conditions: strain FA19 ATCC BAA-1838
Method: Bacteria were either obtained from American Type Culture Collection (ATCC; Manassas, Va., USA) or independent academic clinical isolate collections, as listed in Table 18 below. Bacteria were cultured in Nutrient broth (NB; Bacto Laboratories, catalogue No. 234000) or Mueller Hinton broth (MHB; Bacto Laboratories, catalogue No. 211443) at 37° C. overnight with shaking (˜180 RPM). A sample of each culture was then diluted 50-fold in fresh MHB and incubated at 37° C. for 2-3 h with shaking (˜180 RPM). Compound stock solutions were prepared as 0.64 mg/mL or 2.56 mg/mL in water. The compounds, at twice the final desired concentration, were serially diluted 2-fold across the wells of 96-well plates (Polystyrene, Corning, catalogue No. 3370). Mid-log phase bacterial cultures (after 2-3 h incubation) were diluted to a final concentration of 1×10^6 colony forming units (CFU)/mL, and 50 μL was added to each well giving a final cell density of 5×10^5 and a compound concentration range of 32 μg/mL to 0.015 μg/mL (128-0.06 μg/mL against P. aeruginosa PA9704).

Row | SMILES | CC50 at 24 h [1] [µM] | CC50 at 24 h [2] [µM] | MIC E. coli ATCC 25922 [3] [mg/L] | MIC K. pneumoniae Cl Koprana 10065 0661:1 PmxR [4] [mg/L] | MIC A. baumannii ATCC 19606 [5] [mg/L] | MIC K. pneumoniae ATCC BAA-2146, NDM-1 pos [6] [mg/L] | MIC P. aeruginosa ATCC 27853 [7] [mg/L] | MIC S. aureus ATCC 25923, MSSA [8] [mg/L] | MIC K. pneumoniae ATCC 13883 [9] [mg/L] | MIC K. pneumoniae ATCC 700603, MDR [10] [mg/L] | MIC K. pneumoniae Cl 183-16357-20352, PmxR [11] [mg/L] | MIC, P. aeruginosa FADDI-PA070, PmxR ([12]; strain name as in Table 11) [mg/L] | MIC P. aeruginosa PA9704, PmxR [13] [mg/L] | MIC A. baumannii Cl Ptyela 10073 4512:2, PmxR [14] [mg/L] | MIC K. pneumoniae GN_102 PmxR [4] [mg/L] | MIC K. pneumoniae GN_106, PmxR [11] [mg/L] | MIC P. aeruginosa GN_105, PmxR [13] [mg/L] | MIC A. baumannii GN_093 PmxR [14] [mg/L] | MIC P. aeruginosa GN_043, PmxR ([12]; polymyxin-resistant) [mg/L] | MIC N. gonorrhoeae FA19 ATCC BAA-1838 [15] [mg/L] | also measured
1 | CCCCCCC[C@@H](O)CC(=O)N[C@H](CCN)C(=O)N[C@H]1CCNC(=O)[C@H](CC(C)C)NC(=O)[C@H](CCN)NC(=O)[C@H](CCN)NC(=O)[C@H](CC(C)C)NC(=O)[C@@H](Cc2ccccc2)NC(=O)N(CCN)NC1=O [compound 8636, 3(R)OH-nC9CO-D-Dab-cyc[L-Dab-azaDAB-D-Phe-L-Leu-L-Dab-L-Dab-L-Leu]] ({Decanoyl(3R-OH)}-[dDab][Dab][azaDab][dF]L[Dab][Dab]L; lactam 2-C) | > 300 | > 300 | 16 (≈ 15.3 µM) | >32 | >32 | >32 | 4 (≈ 3.83 µM) | 32 (≈ 30.6 µM) | >32 | 16 (≈ 15.3 µM) | >32 | >32 | >32 | >32 | – | – | – | – | – | – | –
2 | CCCCCCC[C@@H](O)CC(=O)N[C@H](CCN)C(=O)N[C@H]1CCNC(=O)[C@H](CC(C)C)NC(=O)[C@H](CCN)NC(=O)[C@H](CCN)NC(=O)[C@@H](CC(C)C)NC(=O)[C@H](Cc2ccccc2)NC(=O)[C@H](CCN)NC1=O [compound 8640, 3(R)OH-nC9CO-D-Dab-cyc[L-Dab-L-DAB-L-Phe-D-Leu-L-Dab-L-Dab-L-Leu]] ({Decanoyl(3R-OH)}-[dDab][Dab][Dab]F[dL][Dab][Dab]L; lactam 2-C) | > 300 | ≥ 300 | 16 (≈ 15.3 µM) | – | >32 | >32 | 8 (≈ 7.66 µM) | 32 (≈ 30.6 µM) | >32 | 32 (≈ 30.6 µM) | – | – | – | – | >32 | >32 | >32 | >32 | – | – | MIC P. aeruginosa GN_043, PmxR ([12]; P. aeruginosa GN_043, PmxR): >32 mg/L
3 | CCCCCCC[C@@H](O)CC(=O)N[C@H](CCN)C(=O)N[C@H]1CCNC(=O)[C@H](CC(C)C)NC(=O)N(CCN)NC(=O)[C@H](CCN)NC(=O)[C@H](CC(C)C)NC(=O)[C@@H](Cc2ccccc2)NC(=O)[C@H](CCN)NC1=O [compound 8782, 3(R)OH-nC9CO-D-Dab-cyc[L-Dab-L-DAB-D-Phe-L-Leu-L-Dab-azaDab-L-Leu]] ({Decanoyl(3R-OH)}-[dDab][Dab][Dab][dF]L[Dab][azaDab]L; lactam 2-C) | > 300 | > 300 | 16 (≈ 15.3 µM) | >32 | >32 | >32 | 2 (≈ 1.91 µM) | 16 (≈ 15.3 µM) | 32 (≈ 30.6 µM) | 32 (≈ 30.6 µM) | >32 | 8 (≈ 7.65 µM) | 32 (≈ 30.6 µM) | >32 | – | – | – | – | – | – | –
4 | CCCCCCC[C@@H](O)CC(=O)N[C@H](CCN)C(=O)N[C@H]1CCNC(=O)[C@H](CCc2ccccc2)NC(=O)[C@H](CCN)NC(=O)[C@H](CCN)NC(=O)[C@H](CC(C)C)NC(=O)[C@@H](Cc2ccccc2)NC(=O)[C@H](CCN)NC1=O [compound 8913, 3(R)OH-nC9CO-D-Dab-cyc[L-Dab-L-Dab-D-Phe-L-Leu-L-Dab-L-Dab-L-hPhe]] ({Decanoyl(3R-OH)}-[dDab][Dab][Dab][dF]L[Dab][Dab][hPhe]; lactam 2-C) | 32 | – | 2 (≈ 1.83 µM) | – | 8 (≈ 7.32 µM) | 4 (≈ 3.66 µM) | 2 (≈ 1.83 µM) | 4 (≈ 3.66 µM) | 4 (≈ 3.66 µM) | 4 (≈ 3.66 µM) | – | – | – | – | 2 (≈ 1.83 µM) | 2 (≈ 1.83 µM) | 2 (≈ 1.83 µM) | 4 (≈ 3.66 µM) | 4 (≈ 3.66 µM) | 1.56 (≈ 1.43 µM) | –
5 | CCCCCCC[C@@H](O)CC(=O)N[C@H](CCN)C(=O)N[C@H]1CCNC(=O)[C@H](Cc2c[nH]c3ccccc23)NC(=O)[C@H](CCN)NC(=O)[C@H](CCN)NC(=O)[C@H](CC(C)C)NC(=O)[C@@H](Cc2cccc(Cl)c2)NC(=O)[C@H](CCN)NC1=O [compound 8914, 3(R)OH-nC9CO-D-Dab-cyc[L-Dab-L-Dab-D-Phe(3-Cl)-L-Leu-L-Dab-L-Dab-L-Trp]] ({Decanoyl(3R-OH)}-[dDab][Dab][Dab][dPhe(3-Cl)]L[Dab][Dab]W; lactam 2-C) | 25 | – | 2 (≈ 1.74 µM) | – | 4 (≈ 3.47 µM) | 4 (≈ 3.47 µM) | 2 (≈ 1.74 µM) | 2 (≈ 1.74 µM) | 2 (≈ 1.74 µM) | 2 (≈ 1.74 µM) | – | – | – | – | 4 (≈ 3.47 µM) | 4 (≈ 3.47 µM) | 1 (≈ 0.868 µM) | 4 (≈ 3.47 µM) | 4 (≈ 3.47 µM) | 0.78 (≈ 0.677 µM) | –
6 | CCCCCCC[C@@H](O)CC(=O)N[C@H](CN)C(=O)N[C@H]1CCNC(=O)[C@H](CC(C)C)NC(=O)[C@H](CCN)NC(=O)[C@H](CO)NC(=O)[C@H](CC(C)C)NC(=O)[C@@H](Cc2ccccc2)NC(=O)[C@H](CCN)NC1=O [compound 9193, 3(R)-OH-nC9CO-D-Dab-cyc[L-Dab-L-Dab-L-Leu-D-Phe-L-Dab-L-Dab-L-Leu]] ({Decanoyl(3R-OH)}-[dDap][Dab][Dab][dF]LS[Dab]L; lactam 2-C) | > 300 | – | – | – | – | – | – | – | – | – | – | – | – | – | – | – | – | – | – | 25 (≈ 24.6 µM) | MIC, E. coli ATCC 25922 [3]: >32 mg/L; MIC, K. pneumoniae Cl Koprana 10065 0661:1, PmxR [4]: >32 mg/L; MIC, A. baumannii ATCC 19606 [5]: 32 mg/L (≈ 31.5 µM); MIC, K. pneumoniae ATCC BAA-2146, NDM-1 pos [6]: >32 mg/L; MIC, P. aeruginosa ATCC 27853 [7]: 32 mg/L (≈ 31.5 µM); MIC, S. Aureus ATCC 25923, MSSA [8]: >32 mg/L; MIC, K. pneumoniae ATCC 13883 [9]: >32 mg/L; MIC, K. pneumoniae ATCC 700603, MDR [10]: >32 mg/L; MIC, K. pneumoniae Cl 138-16347-20362, PmxR [11]: >32 mg/L; MIC, P. aeruginosa FADDI-PA070, PmxR ([12]; Table 5, polymyxin-resistant): >32 mg/L; MIC, P. aeruginosa PA9704, PmxR [13]: >32 mg/L; MIC, A. baumannii Cl Ptyela 10073 4512:2, PmxR [14]: >32 mg/L

From US11279733B2, “Peptide antibiotics” (priority 2017, dated 2022)
